Test results from US20080194877A1, “Benzamidine Derivatives for Treatment and Prevention of Cancer Therapy Induced Mucositis” ([…].p.A., priority 2005, published 2008).
Several values for one entry are separate records, joined by “and”; a condition that tells them apart may be missing. Equal entries are not always repeated. Where two headings read alike, the source gives them in different places.

Legend:
[1] = tested on: ROS generation in human PMNL; assay: Inhibition of luminol-dependent chemiluminescence (ROS generation) in PMA-activated human PMNL; type: cell-based; details: for IC50: 0.1 μM PMA
Description: Background to the assay: One of the most important events involved in the intracellular cascade leading to NF-kB activation is the generation of oxidative stress and the increase of ROS; the inhibition of these species can contribute to reduce the direct damage to DNA and subsequent clonogenic cell death, and also to diminish the transcription factors activation. The effect of compound 1.1 on luminol-dependent chemiluminescence assay was assessed in human PMNL.
Human neutrophils were obtained from healthy volunteers. Blood was anti-coagulated with Na-Citrate 0.38% and neutrophils were purified according to Boyum (Boyum A. Scand J Clin Invest 1968;21:77-89). The neutrophil purification was achieved by gradient centrifugation on Histo-paque at 400 g for 30 min. Resulting neutrophils were suspended in PBS plus 0.87 mM CaCl2, 1 mM MgCl2, counted, and diluted to 2.5×10^6/ml. Neutrophil suspension was premixed with luminol (5 μM final). A 200 μl-aliquot of cell suspension was incubated into a 96-well plate, with drugs for 10 min at 37° C. Neutrophils were activated with 0.1 μM phorbol 12-myristate 13-acetate (PMA) and the light emission was monitored at 3 min intervals for 24 min in a HTS7000 plus microplate reader. Results were expressed as reduction of the fluorescent signal recorded for cell activated with PMA alone.
Activation of neutrophils with 0.1 μM PMA induced a time-dependent increase in signal luminescence, with a maximal increase within 10-12 min. […] The data are illustrated in FIG. 1.

[2] = tested on: IL-1β; assay: LPS-induced IL-1β release in rat peritoneal macrophages; type: cell-based; details: LPS 1 μg/ml, 24 h
Excerpt: (§1) Background to the assay: Nuclear factor-κB (NF-κB), a key element in the genesis of mucositis, has the capacity to upregulate a large panel of genes, including those that result in the production of pro-inflammatory cytokines, TNFα, IL-1 and IL-6, all leading to apoptosis and tissue injury, and to up-regulate genes that can cause the expression of iNOS and cyclooxygnase-2. The third phase of mucositis is indeed characterized by the amplification of signaling triggered by pro-inflammatory cytokines. The effect of compound 1.1 was assessed in rat peritoneal macrophages.
(§2) Primary cell cultures were obtained from male albino rats (SD, 200-250 g, Harlan, Italy), as described in Methods in Enzymology (Methods in Enzymology, vol. LVIII, pages 494-506). Cells were stimulated, the day after plating, with LPS, 1 μg/ml or 0.1 μg/ml as stated, for 24 h. Compounds were added 20 min before stimulation. The stimulation was performed in DMEM, 1 g/l glucose, 50 μg/ml gentamicin. Supernatants and cell lysates were collected and stored at −80° C. until use. Cytokine quantisation in supernatants was determined by means of commercially available ELISA Kits for rat TNFα, rat IL-1β and rat IL-6 (Amersham).
(§3) Activation of macrophages with 1 μg/ml LPS induced an increase over basal in cytokine production.

[3] = tested on: IL-6; assay: LPS-induced IL-6 release in rat peritoneal macrophages; type: cell-based; details: LPS 1 μg/ml, 24 h
Excerpt: as §1, §2, §3

[4] = tested on: TNFα; assay: LPS-induced TNFα release in rat peritoneal macrophages; type: cell-based; details: LPS 1 μg/ml, 24 h
Excerpt: as §1, §2, §3

[5] = tested on: iNOs protein expression; assay: LPS-induced iNOS protein expression in rat macrophages (Western blot); type: cell-based; details: 30 μM; LPS 0.1 μg/ml, 24 h
Description: as §2
(§4) Western blot analysis of iNOS and COX-2: Cell lysates were analyzed by SDS-PAGE. Proteins were transferred onto PVDF membranes and saturated in blocking buffer. Membranes were incubated for 2 h at RT with the following antibodies: anti-COX-2, anti-iNOS, anti-β-actin and further incubated with a secondary antibody for 45 min at RT. Detection was performed using ECL (Amersham). Quantisation was determined by densitometry analysis using NIH Image software.
(§5) Evaluation of mediator of inflammation such as iNOS and COX-2, was performed in macrophages stimulated with 0.1 μg/ml LPS for 24 h. […]

[6] = tested on: COX-2 protein expression; assay: LPS-induced COX-2 protein expression in rat macrophages (Western blot); type: cell-based; details: 30 μM; LPS 0.1 μg/ml, 24 h
Description: as §2, §4, §5

[7] = tested on: rat gastric mucosa; assay: Gastric ulcer induced by indomethacin in rat; type: in vivo
Excerpt: Indomethacin induces the formation of acute gastric mucosal lesions. The histologic damage is represented by necrosis with loss of surface epithelium, submucosal oedema and leukocyte infiltration. The mechanism involves a neutrophil-dependent process inducing a variety of inflammatory mediators such as reactive oxygen species, and direct detrimental action by indomethacin on processes linked to epithelial proliferation and apoptosis. The epithelial repairing process is due to continuity of epithelial cells with healthy cells of gastric pits that can migrate to the basement membrane; re-epithelialization and reconstruction of the mucosal architecture is under the control of growth factors produced locally by regenerating cells.
20 male SD rats (140-160) were used. The animals were deprived of food but not water 24 hours prior the experiment. Gastric ulcer was induced in conscious rats by oral administration of 10 mg/kg/4 ml of indomethacin, suspended in methylcellulose 0.5%. The tested drug was administered 30 min by gavage (os), or 15 min by subcutaneously (sc), before indomethacin.
Four hours after indomethacin administration, the animals were sacrificed by excess of ether. The stomach was dissected out, opened along the greater curvature, and the mucosa was examined by an observer who was unaware of the treatment given. The extent of ulcers was measured with a 10× binocular fitted with a 0.1 mm-division scale. Data are presented as total length of ulcers per group.
The animals were divided into 4 groups of 5 animals, and were treated as follows:
Groups: • 1. 10 mg/kg Compound 1.1, administered prior to 10 mg/kg indomethacin, os. • 2. 5 mg/kg Compound 1.1, administered prior to 10 mg/kg indomethacin, os. • 3. 1 mg/kg Compound 1.1, administered prior to 10 mg/kg indomethacin, os. • 4. vehicle, administered prior to 10 mg/kg indomethacin, os.
Compound 1.1 was given at 1, 5 and 10 mg/kg prior to indomethacin. […] In Compound 1.1 treated groups the levels of ulcerated animals decreased dose-dependently.

[8] = tested on: clonogenic crypt cells of the small intestine; assay: Mouse mucositis model (clonogenic crypt cell death induced by whole body irradiation); type: in vivo; details: for crypt width (μm) / no. crypts/circumference: average +/− sd; for corrected crypts/circumference: corrected for crypt width
Excerpt: There are thought to be between four and sixteen actual stem cells in each crypt of the small intestine. There are also a further reserve of clonogenic cells which are capable of regenerating the crypt when all the actual stem cells have been killed. The survival of these clonogenic cells is therefore key to the survival of the crypt and the restoration of an intact epithelial lining following cytotoxic injury (only one clonogenic cell needs to survive to ensure the survival of the crypt, and therefore the maintenance of an intact epithelium). Growth factors and other molecules can be used to manipulate the sensitivity of these cells to cytotoxic agents, and thereby reduce the severity of gastrointestinal and oral mucositis. Factors given prior to a cytotoxic insult may increase clonogenic cell number (thereby increasing the probability of clonogen survival) or act to arrest the cell cycle in such cells (thereby making them more resistant to damage or death). […] A combination of both protocols could give maximum protection to the epithelium.
The effects of administration for 3 days before radiation exposure were tested.
30 adult male BDF1 mice (aged 10-12 weeks) were used. The animals were housed for 2 weeks in individually ventilated cages on a 12 hr light:dark cycle to stabilize the circadian rhythm. Animals were allowed food and water ad libitum throughout.
The animals were divided into 5 groups of 6 animals, and were treated as follows:
Groups: • 1. Gavage 20 mg/kg Compound 1.1 72, 48 and 24 hrs prior to 13Gy X-ray exposure (whole body). • 2. Gavage 10 mg/kg Compound 1.1 72, 48 and 24 hrs prior to 13Gy X-ray exposure (whole body). • 3. Gavage 5 mg/kg Compound 1.1 72, 48 and 24 hrs prior to 13Gy X-ray exposure (whole body). • 4. Gavage vehicle 72, 48 and 24 hrs prior to 13Gy X-ray exposure (whole body). • 5. Untreated, un-irradiated controls.
Intestinal damage was induced using a single dose of 13Gy X-irradiation. Four days after irradiation the animals were sacrificed. The small intestine was removed and fixed in Carnoy's fixative prior to processing for histological analysis. 3 μm sections were cut and stained with haematoxylin and eosin. Foci of regeneration (surviving crypts with one or more clonogenic cells) were clearly visible in the irradiated sections. Other than these foci the mesenchyme was entirely denuded; these animals would develop diarrhea and die due to mucositis if allowed to live beyond four days.
For each animal ten intestinal circumferences were analyzed (60 per group)—a circumference is equivalent to a given length of intestine and therefore a convenient baseline unit of length. The number of surviving crypts per circumference was scored and the average per group determined. Only crypts containing 10 or more strongly haematoxylin and eosin stained cells (excluding Paneth cells) and only intact circumferences not containing Peyers patches were scored (Peyers patches influence both the number of crypts in a normal circumference and the ability of a crypt to survive insult).
The average crypt width (measured at its widest point) was also measured in order to correct for scoring errors due to crypt size difference. The correction is applied thus: Corrected number of crypts/circumference=

[9] = 25° C.
[10] = 5 mg/kg, both administration protocols (os, sc)
[11] = 5 mg/kg gavage for 3 days pre 13Gy irradiation
[12] = 10 mg/kg gavage for 3 days pre 13Gy irradiation
[13] = 20 mg/kg gavage for 3 days pre 13Gy irradiation

SMILES: CCCCCNC(=S)Nc1ccc(NC(C)=N)cc1 [Compound 1.1, N-[4-(N-acetamidine)phenyl]-N′-pentyl thiourea]
- % of inhibition of chemiluminescence ([1]; 1 μM): 20%
- Inhibition of ROS generation ([1]; 30 μM (data not shown)): completely inhibited ROS generation
- IC50 ([1]; rising phase, at 15 min, read-out: IC50 luminol-enhanced chemiluminescence, rising phase): 6.4 ± 0.6 µM
- IC50 ([1]; steady phase, at 24 min, read-out: IC50 luminol-enhanced chemiluminescence, steady phase): 2.9 ± 0.2 µM
- IC50 [2]: 30 µM
- IC50 [3]: 63 µM
- IC50 [4]: 54 µM
- % of inhibition iNOs protein expression [5]: 79%
- % of inhibition COX-2 protein expression [6]: 53%
- Effectiveness against ulcer at the lower dose ([7]; 1 mg/kg): effective only in the os protocol administration
- Reduction of extent of ulceration ([7]; 5 mg/kg): 80-90%
- Incidence of ulcer (animals per group) [7, 10]: 3/5
- Incidence of ulcer reduced to [7, 10]: ~50%
- Ulcerated animals (maximal effect) ([7]; 10 mg/kg prior to 10 mg/kg indomethacin): no animals ulcerated
- Survival and adverse effects ([7]; rat, 1, 5 and 10 mg/kg): no obvious adverse effects
- crypt width (μm) [8, 11]: 68.54 +/− 6.6 μm
- no. crypts/circumference [8, 11]: 9.6 +/− 3.4
- corrected crypts/circumference [8, 11]: 4.7 +/− 1.3
- crypt width (μm) [8, 12]: 68.25 +/− 2.4 μm
- no. crypts/circumference [8, 12]: 9.2 +/− 4.7
- corrected crypts/circumference [8, 12]: 4.5 +/− 2.4
- Increase of crypt survival versus vehicle ([8]; 20 mg/kg): 1.9 ×
- crypt width (μm) [8, 13]: 66.19 +/− 3.0 μm
- no. crypts/circumference [8, 13]: 13.2 +/− 5.7
- corrected crypts/circumference [8, 13]: 6.7±3.0 and 6.7 +/− 3.0
- Circumferences without surviving crypt ([8]; 20 mg/kg, 4% of circumference in vehicle treated mouse): prevented the absence of surviving crypt
- Increase of crypt survival versus vehicle ([8]; lower doses (5 and 10 mg/kg)): about 1.3 times
- Survival and adverse effects ([8]; mouse, 5, 10 and 20 mg/kg): no obvious adverse effects

SMILES: CCCCCNC(=S)Nc1ccc(NC(C)=N)cc1.CS(=O)(=O)O [Methanesulphonate, N-[4-(N-acetamidine)phenyl]-N′-pentyl thiourea methanesulphonate]
- Solubility in water [9]: >32 mg/mL
- Solubility in water (%) [9]: >32%

SMILES: CCCCCNC(=S)Nc1ccc(NC(C)=N)cc1.O=C(O)/C=C\C(=O)O [Maleate, N-[4-(N-acetamidine)phenyl]-N′-pentyl thiourea maleate]
- Solubility in water [9]: 3.12 mg/mL
- Solubility in water (%) [9]: 0.31%
